Several values for one entry are separate records, joined by “and”; a condition that tells them apart may be missing. Equal values may be shown once. Each block holds one molecule with its values, some of them ahead of it.
What was measured:
[1] = test system: angiotensin converting enzyme (ACE); details: cited from earlier work
[2] = test system: ICR mice; experiment: Acute toxicity (oral, single dose); format: in vivo; details: 500 mg/kg oral once, 0.5% methylcellulose, after six days
Protocol: Female 5-week-old ICR mice were divided to groups each having five animals and acclimated for a week. Compound Nos. 1-3, 7, 8, 11 and 13 each was dissolved or dispersed in 0.5% methylcelulose aqueous solution, respectively, and orally administered once at a dose of 500 mg/kg, then the number of dead animals was counted after six days.

[3] = target: T1, type 2 (AT2) receptor (Bos taurus, UniProt G5E6F7); experiment: Affinity to angiotensin II type 2 receptor (binding assay); parameters: species or system bovine; details: 37° C., one hour
T1 construct: Receptor: Derived from bovine cerebellum; from tissue; host or cells: bovine cerebellum
T1 sequence (G5E6F7 1-362): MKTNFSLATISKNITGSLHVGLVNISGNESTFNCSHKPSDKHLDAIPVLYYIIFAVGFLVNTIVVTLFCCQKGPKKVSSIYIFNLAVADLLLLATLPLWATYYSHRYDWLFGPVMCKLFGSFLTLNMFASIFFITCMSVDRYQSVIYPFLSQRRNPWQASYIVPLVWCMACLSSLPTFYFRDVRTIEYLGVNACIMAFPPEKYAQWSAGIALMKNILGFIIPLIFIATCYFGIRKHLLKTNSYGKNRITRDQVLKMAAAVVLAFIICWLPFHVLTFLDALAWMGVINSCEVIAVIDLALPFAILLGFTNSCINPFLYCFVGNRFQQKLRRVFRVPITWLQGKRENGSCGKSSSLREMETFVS
Protocol: Practically, determination of total binding of each compound was carried out as follows. A mixture of 0.025 ml of a predetermined concentration of test compound prepared by dissolving in DMSO, dilution with a buffer attached to the drug discovery system to 2-fold solution, 0.025 ml of a tracer and 0.2 ml of a receptor to make total volume of 0.25 ml was incubated at room temperature for three hours for type 1 angiotensin II (AT1) receptor or at 37° C. for one hour for type 2 (AT2) receptor. The reaction mixture was filtered under suction with CF/C filter paper for AT1 and CF/B filter paper for AT2. The used filter paper having the combination of the tracer and the receptor was determined with a γ-well counter (ARC-500, Aloka). Non-specific binding was determined with a similar manner by adding a large excess amount of displacer. The specific binding of test compound at a predetermined concentration was obtained by subtracting non-specific binding from respective total binding. In AT1, and AT2, a predetermined concentrations of test compound and a control compound were used to give the inhibitory rate, IC50 value of 50% inhibition, or binding inhibitory % at 100 μM, for binding of a radioactive ligand (tracer) and the receptor.
Receptor: Derived from bovine cerebellum
Tracer: ^125 ITyr^4angiotensin II
Control compound: Angiotensin II (human)
(Displacer): Angiotensin II (human)

[4] = test system: rats with renal diseases; experiment: Hypotensive action in rats with experimental renal disease (tail cuff); format: in vivo, rats (female Sprague-Dawley)
Protocol: The compounds of the present invention and a comparative compound, Dup 753, were orally administered by gavage to rats with renal diseases and hypotensive action was determined. Rats with experimental renal disease were prepared with conventional method by ligating branch of renal artery. That is, female Sprague-Dawley rats were anesthetized, left renal hilus was exposed and three of four second branches of renal artery were ligated remaining one branch. One week later, further right renal hilus including artery, vein and ureter was ligated to reduce renal function up to about 1/8 to those of normal animals. Rats were divided to make eight animals in one group, and 20 mg/kg of one test compound and water as a control were administered to each group. After two days, systolic blood pressure was determined with a blood pressure determination apparatus using tail cuff method (UR5000, Ueda Manufacturing Co., Ltd.).

[5] = test system: angiotensin II receptor; details: cited from earlier work
[6] = test system: SHR rats, 3/4NPX cardiac hypertrophy model; experiment: Inhibitory action of myocardial disturbance, Test 1 (3/4NPX cardiac hypertrophy model); format: in vivo
Protocol: SHR rats were divided into control group and test group each having three animals and both groups were treated with 3/4NPX, an experimental cardiac hypertrophy model prepared by 3/4 partial nephrectomy, after eight weeks. […] After the oral administration,kidneys and heart were excised and their weight was determined.

[7] = test system: SHR rats, 3/4 NPX cardiac hypertrophy model; experiment: Inhibitory action of myocardial disturbance, Test 2 (3/4 NPX cardiac hypertrophy model); format: in vivo
Protocol: Similarly, 3/4 NPX (cardiac hypertrophy model caused by 3/4 partial nephrectomy) was carried out at four weeks point in a control group and test group of SHR rats each having two and three animals. […] After 11 weeks, kidneys and heart were excised and their weight was determined.

[8] = test system: rats with renal diseases; details: J. Pharmacol. Exp. Ther., 267: 657-663, 1993; cited from earlier work
[9] = J. Clin. Pharmacol., 30:155-158, 1990
[10] = test group average, 20 mg/kg in drinking water four weeks, after 16 weeks
[11] = test group individual animals 1-3 in order, 20 mg/kg, after 16 weeks, 20 mg/kg
[12] = test group average, 20 mg/kg in drinking water, after 9 weeks
[13] = test group average, 20 mg/kg in drinking water, after 11 weeks
[14] = test group individual animals 1-3 in order, 20 mg/kg, after 9 weeks, 20 mg/kg
[15] = test group individual animals 1-3 in order, 20 mg/kg, after 11 weeks, 20 mg/kg

Structure (SMILES): CCOC(=O)[C@H](CCc1ccccc1)N[C@@H](C)C(=O)N1CCC[C@H]1C(=O)O [Enalapril]
blood pressure (in words) [1, 9]: lower blood pressure
renal dysfunction (in words) [1, 9]: improve the progress of renal dysfunction
adverse reactions (in words) [1]: dry cough or adverse reaction of acute renal failure

Structure (SMILES): CCCCC(=O)N(Cc1ccc(-c2nn[nH]n2)cc1)c1cc(C(=O)N2CCOCC2)ccc1N(C)C [Compound No. 13, 4-Dimethylamino-3-N-[[4-(1H-tetrazol-5-yl)phenylmethyl]valeramido]benzoic acid morpholide]
number of dead animals [2]: No dead animals was found

inhibition at 100 µM [3]: 0%
Structure (SMILES): CCCCc1nc(Cl)c(CO)n1Cc1ccc(-c2ccccc2-c2nnn[nH]2)cc1 [DuP753, 2-butyl-4-chloro-5-(hydroxymethyl)-1-[[2'-(1H-tetrazol-5-yl)biphenyl-4-yl]methyl]imidazole]
Blood pressure (average systolic) ([4]; 20 mg/kg oral gavage, after two days, control (water) 210): 130 mmHg
effect on blood pressure (in words) ([4]; 20 mg/kg oral, compared with control group): marked hypotension
antagonistic action to angiotensin II receptor (in words) [5]: potent antagonistic action to angiotensin II receptor

Structure (SMILES): CCCCC(=O)N(Cc1ccc(C(=O)OCCN(C)C)cc1)c1cc(C(=O)N2CCOCC2)ccc1N(C)C [Compound No. 1, 4-dimethylamino-3-N-[[[4-(2'-dimethylaminoethoxycarbonyl)phenyl]-methyl]valeramido]benzoic acid morpholide]
cardiac disturbance (in words) ([6]; Test 1, 20 mg/kg): inhibited cardiac disturbance
heart weight (in words) ([6]; Test 1, 20 mg/kg): decrease of heart weight due to cardiac hypertrophy
hypotension or kidney disturbance (in words) ([6]; Test 1, 20 mg/kg): without inducing hypotension or kidney disturbance
kidney weight (in words) ([6]; Test 1, 20 mg/kg): decreased inhibition of kidney weight increase
BP: blood pressure, average [6, 10]: 232 mmHg
BUN: blood urea nitrogen, average [6, 10]: 58 mg/dL
BW: body weight, average [6, 10]: 385 g
CCr: creatinine clearance, average [6, 10]: 0.76 mL/min
Cr: blood creatinine, average [6, 10]: 1.0 mg/dL
HW: heart weight, average [6, 10]: 1.493 g
KW: kidney weight, average [6, 10]: 1.451 g
RW: relative weight (heart), average [6, 10]: 0.388%
RW: relative weight (kidney), average [6, 10]: 0.376%
U-Pro.: urinary protein, average [6, 10]: 114.6 mg/day
BP: blood pressure, individual animal [6, 11]: 247 mmHg and 221 mmHg and 229 mmHg
BUN: blood urea nitrogen, individual animal [6, 11]: 55 mg/dL and 50 mg/dL and 70 mg/dL
BW: body weight, individual animal [6, 11]: 415 g and 346 g and 394 g
CCr: creatinine clearance, individual animal [6, 11]: 0.88 mL/min and 0.74 mL/min and 0.66 mL/min
Cr: blood creatinine, individual animal [6, 11]: 1.0 mg/dL and 0.9 mg/dL and 1.2 mg/dL
HW: heart weight, individual animal [6, 11]: 1.546 g and 1.326 g and 1.606 g
KW: kidney weight, individual animal [6, 11]: 1.515 g and 1.269 g and 1.568 g
RW: relative weight (heart), individual animal [6, 11]: 0.373% and 0.383% and 0.408%
RW: relative weight (kidney), individual animal [6, 11]: 0.365% and 0.366% and 0.398%
U-Pro.: urinary protein, individual animal [6, 11]: 119.8 mg/day and 50.5 mg/day and 174.6 mg/day
heart weight (in words) ([7]; Test 2, 20 mg/kg): declined heart weight
myocardial disturbance (in words) ([7]; Test 2, 20 mg/kg): inhibition of myocardial disturbance
urinary protein (in words) ([7]; Test 2, 20 mg/kg): significant decrease of urinary protein
BP: blood pressure, average [7, 12]: 214 mmHg
BUN: blood urea nitrogen, average [7, 12]: 44 mg/dL
BW: body weight, average [7, 12]: 258 g
CCr: creatinine clearance, average [7, 12]: 0.64 mL/min
Cr: blood creatinine, average [7, 12]: 0.7 mg/dL
U-Pro.: urinary protein, average [7, 12]: 43.3 mg/day
BP: blood pressure, average [7, 13]: 237 mmHg
BUN: blood urea nitrogen, average [7, 13]: 56 mg/dL
BW: body weight, average [7, 13]: 286 g
CCr: creatinine clearance, average [7, 13]: 0.67 mL/min
Cr: blood creatinine, average [7, 13]: 0.8 mg/dL
HW: heart weight, average [7, 13]: 1.078 g
KW: kidney weight, average [7, 13]: 1.350 g
RW: relative weight (heart), average [7, 13]: 0.378%
RW: relative weight (kidney), average [7, 13]: 0.473%
U-Pro.: urinary protein, average [7, 13]: 65.4 mg/day
BP: blood pressure, individual animal [7, 14]: 205 mmHg and 219 mmHg and 214 mmHg
BUN: blood urea nitrogen, individual animal [7, 14]: 41 mg/dL and 45 mg/dL and 47 mg/dL
BW: body weight, individual animal [7, 14]: 263 g and 254 g and 256 g
CCr: creatinine clearance, individual animal [7, 14]: 0.83 mL/min and 0.51 mL/min and 0.58 mL/min
Cr: blood creatinine, individual animal [7, 14]: 0.6 mg/dL and 0.8 mg/dL
U-Pro.: urinary protein, individual animal [7, 14]: 38.7 mg/day and 41.5 mg/day and 49.8 mg/day
BP: blood pressure, individual animal [7, 15]: 217 mmHg and 259 mmHg and 234 mmHg
BUN: blood urea nitrogen, individual animal [7, 15]: 44 mg/dL and 50 mg/dL and 58 mg/dL
BW: body weight, individual animal [7, 15]: 299 g and 271 g and 287 g
CCr: creatinine clearance, individual animal [7, 15]: 0.79 mL/min and 0.55 mL/min and 0.67 mL/min
Cr: blood creatinine, individual animal [7, 15]: 0.7 mg/dL and 0.8 mg/dL and 1.0 mg/dL
HW: heart weight, individual animal [7, 15]: 1.113 g and 1.018 g and 1.106 g
KW: kidney weight, individual animal [7, 15]: 1.364 g and 1.319 g and 1.368 g
RW: relative weight (heart), individual animal [7, 15]: 0.372% and 0.376% and 0.385%
RW: relative weight (kidney), individual animal [7, 15]: 0.456% and 0.487% and 0.477%
U-Pro.: urinary protein, individual animal [7, 15]: 46.9 mg/day and 40.5 mg/day and 108.7 mg/day

Structure (SMILES): C[C@H](CS)C(=O)N1CCC[C@H]1C(=O)O [Captopril]
blood pressure (in words) [1, 9]: lower blood pressure
adverse reactions (in words) [1]: dry cough or adverse reaction of acute renal failure

Structure (SMILES): CCCCC(=O)N(Cc1ccc(-c2ccccc2-c2nn[nH]n2)cc1)c1cc(C(=O)N2CCOCC2)ccc1N(C)C [Compound No. 11]
number of dead animals [2]: No dead animals was found

Structure (SMILES): CCCCC(=O)N(Cc1ccc(C(=O)O)cc1)c1cc(C(=O)N2CCOCC2)ccc1N(C)C [Compound No. 7, 3-N-[[(4-Carboxyphenyl)methy)valeramido]-4-dimethylaminobenzoic acid morpholide]
number of dead animals [2]: No dead animals was found

Structure (SMILES): CCCN(Cc1ccc(-c2ccccc2-c2nnn[nH]2)cc1)c1ncccc1C(=O)O [A-81988, 2-[N-propyl-N-[[2'-(1H-tetrazol-5-yl)biphenyl-4-yl]methyl]amino]-pyridine-3-carboxylic acid]
hypotension (in words) [8]: accompanied with hypotension
proteinuria (in words) [8]: improvement in proteinuria

Structure (SMILES): CCCCC(=O)N(Cc1ccc(C(=O)O)cc1)c1cc(C(=O)N2CCOCC2)ccc1C [Compound No. 8, 4-Methyl-3-N-[[4-(carboxyphenyl)methyl]valeramido]benzoic acid morpholide]
number of dead animals [2]: No dead animals was found

Reference: patent US5932575A, “Cardiac diseases improving agents” (Kureha Chemical Industry Co., Ltd., priority 1997, dated 1999)
